{
  "source": "patent US11180461B2",
  "about": "“Triazoles as Kv3 inhibitors” (AUTIFONY THERAPEUTICS LIMITED, priority 2012, dated 2021)",
  "molecular_target": "T1, human Kv3.3 channels (hKv3.3) (Homo sapiens, UniProt Q14003)",
  "T1 construct": "expressed in transfected cells",
  "T1 sequence (Q14003 1-757)": "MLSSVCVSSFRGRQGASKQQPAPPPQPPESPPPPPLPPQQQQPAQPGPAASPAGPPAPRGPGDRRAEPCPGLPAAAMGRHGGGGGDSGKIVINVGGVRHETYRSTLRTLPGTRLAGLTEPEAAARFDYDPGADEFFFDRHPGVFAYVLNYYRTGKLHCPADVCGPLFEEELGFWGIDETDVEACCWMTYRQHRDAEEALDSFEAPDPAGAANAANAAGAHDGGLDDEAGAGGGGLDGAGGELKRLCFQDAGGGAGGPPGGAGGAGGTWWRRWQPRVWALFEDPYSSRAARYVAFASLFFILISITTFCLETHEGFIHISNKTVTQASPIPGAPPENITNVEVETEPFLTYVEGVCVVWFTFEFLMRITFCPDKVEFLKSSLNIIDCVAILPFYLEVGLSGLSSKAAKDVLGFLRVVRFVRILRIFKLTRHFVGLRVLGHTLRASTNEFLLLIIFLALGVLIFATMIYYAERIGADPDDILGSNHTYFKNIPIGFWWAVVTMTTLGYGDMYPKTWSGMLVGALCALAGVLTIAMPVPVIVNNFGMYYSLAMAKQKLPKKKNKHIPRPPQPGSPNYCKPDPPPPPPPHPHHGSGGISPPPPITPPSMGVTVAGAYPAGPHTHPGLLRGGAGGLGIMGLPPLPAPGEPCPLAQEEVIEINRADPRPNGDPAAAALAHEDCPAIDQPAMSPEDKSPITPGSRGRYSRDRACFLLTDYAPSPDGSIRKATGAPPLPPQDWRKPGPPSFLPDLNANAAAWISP",
  "experiment": "hKv3.3 recombinant cell assay, IonWorks Quattro planar array electrophysiology",
  "type": "cell-based",
  "details": "12.5 micromolar; mean, n=2",
  "excerpt": "The ability of the compounds of the invention to modulate the voltage-gated potassium channel subtypes Kv3.2/3.1 may be determined using the following assay. The assay may also be used to determine the ability of compounds of the invention to modulate the voltage-gated potassium channel Kv3.3. Analogous methods may be used to investigate the ability of the compounds of the invention to modulate other channel subtypes.\nTo assess compound effects on human Kv3.3 channels (hKv3.3), a stable cell line expressing human Kv3.3 channels was created by transfecting Chinese Hamster Ovary (CHO)—K1 cells with a pBacMire_KCNC-3 vector. Cells were cultured in DMEM/F12 (Gibco) supplemented with 10% Foetal Bovine Serum (Gibco), 1× non-essential amino acids (Invitrogen) and geneticin (G418) 400 microg/mL. Cells were grown and maintained at 37° C. in a humidified environment containing 5% CO2 in air. […]\nExperiments were conducted at room temperature using IonWorks Quattro™ planar array electrophysiology technology (Molecular Devices Corp.) with PatchPlate™ PPC. […] Planar electrode hole resistances (Rp) were determined by applying a 10 mV voltage step across each well. […] Test pulses protocol may be performed in the absence (pre-read) and presence (post-read) of the test compound. Pre- and post-reads may be separated by the compound addition followed by a 3 minute incubation. […]",
  "data": [
    {"smiles": "Cc1ccc(Oc2ccc(-n3c(C)n[nH]c3=O)cn2)c2c1OCC21CC1", "note": "[Example 14, 5-methyl-4-{6-[(7-methylspiro[1-benzofuran-3,1′-cyclopropan]-4-yl)oxy]pyridin-3-yl}-2,4-dihydro-3H-1,2,4-triazol-3-one]", "values": [
      {"measurement": "increase in human Kv3.3 peak current at 0 mV", "result": 75, "unit": "%"}
    ]}
  ]
}
